One may read the LogP as a log measure of how a compound divides between an organic and an aqueous phase.

The text below walks through data of patent US20220062190A1, “Therapeutic Agent and Nutraceutical Compositions And Methods for Making and Using Same” (NUREVELATION, LLC, priority 2020, published 2022).

The conditions of data set [1]: octanol/water; value not marked predicted; source not stated; cited from earlier work.
For data set [2], the system named is movement disorder due to antipsychotics known as dystonia and parkinsonism. Conditions: use column of Table 1A; cited from earlier work.
Data set [3] in a line: Solubility in water when preparing mass spectrometry standards. The class given is physicochemical. Conditions: standard and batch prepared in methanol instead. As to the method:
Samples for mass spectrometry were weighed and then concentrated to 5 mg/mL. The samples were further diluted to 0.1 mg/mL for analysis in 50/50 water to methanol. Standards were prepared to 20 μg/mL in optima grade methanol or water. The following standards were prepared in water at 20 μg/mL: bethanechol chloride, chloroquine diphosphate, cyclobenzaprine hydrochloride, D-penicillamine, ondansetron hydrochloride, venlafaxine hydrochloride, and donepezil hydrochloride.

Where a name gives a salt, the structure may show the parent alone.

In the case of `NCC(CC(=O)O)c1ccc(Cl)cc1` (centres unmarked) [Baclofen], the LogP in data set [1] was 1.3.
For the molecule `CN1[C@@H]2CC[C@H]1C[C@@H](OC(c1ccccc1)c1ccccc1)C2` [Benztropine], in data set [2], the duration of benefits was at most 10 h and the “time until benefits are seen” value was at most 2 h.
Turning to `CC(C[N+](C)(C)C)OC(N)=O` (centres unmarked) [Bethanechol chloride], the LogP in data set [1] is −4.1.
Regarding `COc1ccccc1OCCNCC(O)COc1cccc2[nH]c3ccccc3c12` (centres unmarked) [Carvedilol], the LogP in data set [1] is on record as 3.8.
As to `CN(C)CCC=C1c2ccccc2C=Cc2ccccc21` [Cyclobenzaprine hydrochloride], in data set [1], the lipophilicity (LogP) was 5.2.
Regarding `CC(C)(S)[C@@H](N)C(=O)O` [D-penicillamine], in data set [1], the LogP was −1.78.
For `CC1=NS(=O)(=O)c2cc(Cl)ccc2N1` [Diazoxide], in data set [1], the LogP is 1.20.
Take `C[C@H]1c2cccc(O)c2C(=O)C2=C(O)[C@]3(O)C(=O)C(C(N)=O)=C(O)[C@@H](N(C)C)[C@@H]3[C@@H](O)[C@@H]21` [Doxycycline]: in data set [1], the log partition coefficient (LogP) is recorded as 0.63.
Take `C#C[C@]1(O)CC[C@H]2[C@@H]3CCc4cc(O)ccc4[C@H]3CC[C@@]21C` [Ethinylestradiol]: the LogP in data set [1] is 3.67.
On to `COc1ccccc1OCC(O)CO` (centres unmarked) [Guaifenesin], for which the LogP in data set [1] is 1.39.
For the molecule `CCCCC1=NC2(CCCC2)C(=O)N1Cc1ccc(-c2ccccc2-c2nnn[nH]2)cc1` [Irbesartan], the LogP in data set [1] is listed as 4.5.
For the molecule `Nc1nnc(-c2cccc(Cl)c2Cl)c(N)n1` [Lamotrigine], the LogP in data set [1] is 1.93.
`N[C@@H](Cc1cc(I)c(Oc2cc(I)c(O)c(I)c2)c(I)c1)C(=O)O` [Levothyroxine]: the LogP in data set [1] is given as 4.0.
With `NCCCC[C@H](N[C@@H](CCc1ccccc1)C(=O)O)C(=O)N1CCC[C@H]1C(=O)O` [Lisinopril dihydrate], the LogP in data set [1] was −1.01.
With `CC[C@H](C)C(=O)O[C@H]1C[C@@H](C)C=C2C=C[C@H](C)[C@H](CC[C@@H]3C[C@@H](O)CC(=O)O3)[C@H]21` [Lovaststin], the LogP in data set [1] is 4.08.
`Cc1cnc(NC(=O)C2=C(O)c3ccccc3S(=O)(=O)N2C)s1` [Meloxicam]: in data set [1], the LogP was 0.1.
As for `Nc1ccc(O)c(C(=O)O)c1` [Mesalamine], the LogP in data set [1] was −0.29.
On to `NC(=O)c1cnccn1` [Pyrazinamide], for which, in data set [1], the LogP is reported as −0.60.
Regarding `Cc1ncc(CO)c(CO)c1O` [Pyridoxine], the lipophilicity (LogP) in data set [1] is listed as −0.77.
On to `CNC(=C[N+](=O)[O-])NCCSCc1ccc(CN(C)C)o1` [Ranitidine], for which the LogP in data set [1] is reported as 0.2.
Regarding `Cc1nc2n(c(=O)c1CCN1CCC(c3noc4cc(F)ccc34)CC1)CCCC2` [Risperidone], in data set [3], the solubility in water result is recorded as “insolubility in water”.
On to `CC(=O)S[C@@H]1CC2=CC(=O)CC[C@]2(C)[C@H]2CC[C@@]3(C)[C@@H](CC[C@@]34CCC(=O)O4)[C@H]12` [Spironolactone], for which the log partition coefficient (LogP) in data set [1] is 2.78.
